According to patent US9394299B2, “Rilyazine derivatives and compositions for the treatment of cancer” (Warner Babcock Institute for Green Chemistry, LLC, priority 2013, dated 2016):

Legend:
[1] = test system: MCF-shWISP cells; assay: MTT cell proliferation assay, MCF-shWISP; assay type: cell-based; conditions: 72 h-exposure, 30-0.041 μM
Experimental: In vitro characterizing of the effects of rilyazine analogs on cell proliferation and apoptosis in the paired epithelial/mesenchymal lines (Colo205/Colo-R, DLD/DLD-SNAIL and MCF7/MCF7-WISP) was performed in an independent laboratory.
The Dose Preparation is based on a reconstitute in DMSO. The Concentration of the stock solution is 100 mM. Storage of the stock solution is under −80° C.
Working drug solution of rilyazine analogs: A stock solution of 100 mM OTX015 in DMSO was prepared and stored at −80° C. For growth inhibition studies, dilution series were prepared by (1) diluting stock solution into DMSO, then (2) diluting 1:300 in culture medium supplemented with 10% FBS giving a final concentration in 0.3% DMSO in the 96-well plates.
Cell lines. Cells lines were maintained in RPMI 1640 (PAA Laboratories, France) supplemented with 10% fetal bovine serum (FBS; PAA Laboratories, France), 2 mM glutamine (PAA Laboratories, France), 100 units/ml penicillin and 100 μg/ml streptomycin (PAA Laboratories, France). Cells were free of Mycoplasma.
Proliferation assays. Cell proliferation was determined using the MTT assay (3-[4,5-dimethylthiazol-2-yl]-2,5-diphenyltetrazolium bromide; Sigma-Aldrich, St. Louis, Mo.). […] After incubation, the supernatant was discarded, the cell pellet was resuspended in 0.1 mL DMSO, and the absorbance was measured at 560 nm using a microplate reader (Thermo, France). […]

[2] = test system: OVCAR-5 (ovarian cancer); assay: NCI five point dosing, OVCAR-5; assay type: cell-based, human
Experimental: RL-4 was evaluated against the 60 cell panel at five concentration levels, 10^−8 M, 10^−7 M, 10^−6 M, 10^−5 M and 10^−4 M.
(§1) The human tumor cell lines of the cancer screening panel are grown in RPMI 1640 medium containing 5% fetal bovine serum and 2 mM L-glutamine. Cells are inoculated into 96 well microtiter plates in 100 μL at plating densities ranging from 5,000 to 40,000 cells/well depending on the doubling time of individual cell lines. After cell inoculation, the microtiter plates are incubated at 37° C., 5% CO2, 95% air and 100% relative humidity for 24 h prior to addition of experimental drugs. […]
(§2) Following drug addition, the plates are incubated for an additional 48 h at 37° C., 5% CO2, 95% air, and 100% relative humidity. […] Bound stain is subsequently solubilized with 10 mM trizma base, and the absorbance is read on an automated plate reader at a wavelength of 515 nm. […]
The percentage growth is calculated at each of the five drug concentrations levels using the seven absorbance measurements, namely absorbance at time zero (Tz), absorbance of control after incubation (C), and absorbance of test sample after incubation in the presence of drug at each of the five concentration levels (Ti). The Growth Percent is calculated as it was for the 1 dose assay: Growth Percent=[(Ti−Tz)/(C−Tz)]×100 for cell line/drug combinations for which Ti≧Tz. […]

[3] = test system: MDA-MB-231/ATCC (Breast); assay: NCI single point 10 μM, MDA-MB-231/ATCC; assay type: cell-based, human; conditions: 10^−5 M
Experimental: (§3) The screening is a two-stage process, beginning with the evaluation of all compounds against 60 cell lines at a single dose of 10^−5 M.
as §1, §2
(§4) For the 1-dose 60 cell testing, the Growth Percent is calculated for each cell line/drug combination from the absorbance measurement for the no-drug control (C), the absorbance at time zero (Tz) and the absorbance measurement after incubation of the cells in the presence of drug (Ti): Growth Percent=[(Ti−Tz)/(C−Tz)]×100 for cell line/drug combinations for which Ti≧Tz. […]

[4] = test system: SK-MEL-28 (Melanoma); assay: NCI single point 10 μM, SK-MEL-28; assay type: cell-based, human; conditions: 10^−5 M
Experimental: as §3, §1, §2, §4

With `S=c1c2ncccc2c(-c2ccccn2)nn1C1CCCCC1` [RL-4, 7-cyclohexyl-5-(pyridin-2-yl)pyrido[2,3-d]pyridazine-8(7H)-thione] the “anti-proliferative effects (in words)” value [1] was “dose-dependent anti-proliferative effects”, the Growth Percent ([2]; 10^−4 M dose) was 54% and the GI50 ([2]; Homo sapiens, five point dosing) was greater than 100 µM. The “Growth Percent” value [3] was 129.23% and the “Growth Percent” value [4] was 93.53%.
